{
  "source": "ChEMBL document CHEMBL2203039",
  "about": "“Azabenzthiazole inhibitors of leukotriene A₄ hydrolase” (Bioorg Med Chem Lett, 2012)",
  "biological_target": "Voltage-gated inwardly rectifying potassium channel KCNH2 (Homo sapiens, UniProt Q12809)",
  "sequence (Q12809 whole entry)": "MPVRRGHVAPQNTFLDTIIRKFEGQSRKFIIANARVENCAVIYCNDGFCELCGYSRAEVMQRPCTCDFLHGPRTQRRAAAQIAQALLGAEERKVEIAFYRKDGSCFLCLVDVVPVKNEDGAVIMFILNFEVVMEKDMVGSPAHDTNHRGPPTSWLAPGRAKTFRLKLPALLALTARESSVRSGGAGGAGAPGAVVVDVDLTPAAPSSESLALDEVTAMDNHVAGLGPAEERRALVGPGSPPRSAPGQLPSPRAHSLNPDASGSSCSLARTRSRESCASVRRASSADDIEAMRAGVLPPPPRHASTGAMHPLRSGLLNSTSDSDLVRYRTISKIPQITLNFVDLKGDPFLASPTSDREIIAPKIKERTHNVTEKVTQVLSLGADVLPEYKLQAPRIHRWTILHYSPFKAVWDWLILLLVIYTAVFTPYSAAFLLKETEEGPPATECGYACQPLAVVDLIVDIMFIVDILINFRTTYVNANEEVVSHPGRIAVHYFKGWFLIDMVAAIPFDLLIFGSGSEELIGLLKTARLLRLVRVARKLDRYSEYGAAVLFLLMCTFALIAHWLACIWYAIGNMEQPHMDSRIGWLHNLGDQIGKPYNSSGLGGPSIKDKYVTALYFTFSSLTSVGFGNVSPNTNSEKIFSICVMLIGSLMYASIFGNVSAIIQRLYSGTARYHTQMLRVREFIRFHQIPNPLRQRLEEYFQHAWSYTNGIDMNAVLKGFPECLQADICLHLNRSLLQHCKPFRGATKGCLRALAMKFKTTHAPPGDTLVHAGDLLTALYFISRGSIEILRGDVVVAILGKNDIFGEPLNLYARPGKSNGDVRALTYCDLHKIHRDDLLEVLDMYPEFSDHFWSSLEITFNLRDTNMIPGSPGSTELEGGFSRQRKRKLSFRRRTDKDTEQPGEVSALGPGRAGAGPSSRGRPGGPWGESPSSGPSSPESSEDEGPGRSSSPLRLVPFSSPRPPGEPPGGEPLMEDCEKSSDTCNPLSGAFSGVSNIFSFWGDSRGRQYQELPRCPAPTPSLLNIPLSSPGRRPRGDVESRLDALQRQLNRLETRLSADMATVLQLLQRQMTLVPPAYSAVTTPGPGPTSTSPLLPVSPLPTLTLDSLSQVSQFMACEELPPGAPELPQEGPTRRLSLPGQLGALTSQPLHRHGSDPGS",
  "test": "Inhibition of dofetilide binding to human ERG by radioligand binding assay",
  "data": [
    {"smiles": "O=C1CCCN1C1CCN(CCc2ccc(Oc3nc4ncccc4s3)cc2)CC1", "values": [
      {"measurement": "IC50", "result": "> 10", "unit": "µM"}
    ]}
  ]
}
